In patent US20130210034A1, “COMPLEX PHOSPHOPROTEIN ACTIVATION PROFILES” (BECKMAN COULTER, INC., priority 2005, published 2013):
Values joined by “and” are separate entries in the source; they are usually repeats but may differ in a detail not shown here. Equal values may be shown once.

Tests used:
Type in all cases: cell-based, human
pS6 [1] = test: Phosphoprotein kinetic profiles in bone marrow samples from healthy donors; conditions: for pS6 Amp (peak amplitude of fold stimulation) / pS6 RI (response interval): CD34^+, healthy donor samples
Description: (§1) Phosphoprotein kinetic profiles were analyzed in bone marrow aspiration samples from nine healthy, adult donors (i.e., normal bone marrow or NBM) and from five AML patients. Samples from healthy donors included 5 males and 4 females, ranging in age from 26 to 49 years. Approximately 10 to 20 mL of bone marrow (BM) samples were collected from the posterior iliac crest of the volunteers using IRB approved protocols. The BM samples were filtered using a 40 μm Nylon cell strainer to remove marrow particles and the white blood cell concentration determined using a blood analyzer. […] The samples were immediately used for subsequent experimentation.
(§2) To assess the signal transduction response after growth factor simulation, 100 to 200 μL of processed samples including about 2×10^6 WBC/100 μL were added to tubes and incubated at 37° C. for 30 minutes. For inhibition experiments, cells were incubated with 100 μM U0126, 1 μg/mL rapamycin, or both for at least 20 minutes prior to cytokine addition and in all cases for 30 min prior to formaldehyde addition. […] After stimulation the cells were immediately fixed by the addition of formaldehyde to a final concentration of 4% v/v and incubated for 10 minutes at room temperature. Following fixation, red blood cells were lysed by the addition of TRITON-X/PBS solution (0.1% v/v final concentration Triton X-100) supplemented with a 1 x phosphatase inhibitor cocktail (PIC; final concentrations: 0.2 mM sodium orthovanadate, 2 mM sodium pyrophosphate decahydrate, 2 mM [3-glycerophosphate, and 10 mM sodium fluoride) and incubation at 37° C. for 20 minutes. The incubated solution was chilled by the addition of ice-cold Wash Buffer (final concentration 1×PBS and either 4% bovine serum albumin (BSA) or 4% heat-inactivated fetal bovine serum (FBS), supplemented with 1×PIC), and the samples were centrifuged at 300 g for 6 minutes at 4° C.). If the lysis was incomplete, samples were retreated with 0.1% Triton X-100 at 37° C. for 10 to 20 minutes. After removal of the supernatant, cells were washed twice in ice-cold Wash Buffer supplemented with 1×PIC and permeabilized by the addition of pre-chilled 80% methanol while simultaneously vortexing the tube and incubated on ice for 10 minutes. Methanol was removed by centrifugation, the pellet was washed with ice-cold 1×PBS, and non-specific binding was blocked by the addition of ice-cold Wash Buffer supplemented with 1×PIC and incubation at 4° C. for a minimum of 30 minutes.
(§3) To stain cells with fluorescent conjugated monoclonal antibodies, the incubated solution was centrifuged to remove the supernatant and the pellet was incubated for 60 minutes at 4° C. with an antibody staining solution including 0.25 μg to 0.50 μg of pS6-Pacific Blue, pERK-ALEXA 488, pSTAT5-ALEXA 647, CD34-PE, CD45-PerCP, and CD117-PC7. Samples were washed three times with ice-cold Wash Buffer supplemented with 1×PIC, resuspended in 0.5 mL ice-cold Wash Buffer supplemented with 1×PIC including 0.5 μg/mL DAPI, and analyzed by flow cytometryusing a BD LSR II Flow Cytometer, equipped with a High Throughput Sampler (HTS).
(§4) First, doublets, aggregates, and debris were excluded by gating on single cell events in the SSC-Area versus SSC-Height histogram. Then, in events passing through this gate, debris near the origin of the FSC-Area versus SSC-Area plot (gray in FIG. 4A) was excluded by drawing a gate around an area encompassing, primarily, lymphocytes, monocytes, and granulocytes (LMG, black in FIG. 4A). Next, in cells passing through the LMG gate, the blast region (circle in FIG. 4B) was identified in the CD45 versus SSC-Area histogram (FIG. 4B). From this blast population, CD34+, CD117+ cells were identified in the CD34 versus CD117 plot (boxed area in FIG. 4C).

pERK [2] = test: as above; conditions: for pERK Amp (peak amplitude of fold stimulation) / pERK RI (response interval): CD34^+, CD117^+ cells, healthy donor samples
Description: as §1, §2, §3, §4

pSTAT5 [3] = test: as above
Description: as §1, §2, §3, §4

pS6 [4] = test: Phosphoprotein kinetic profiles in CD34+, CD117+ cells of AML bone marrow samples; conditions: CD34^+, CD117^+ cells, AML1 sample (Example 6)
Description: as §2, §3
(§5) First, doublets, aggregates, and debris were excluded by gating on single cell events in the SSC-Area versus SSC-Height histogram. Then, in events passing through this gate, debris near the origin of the FSC-Area versus SSC-Area plot (gray in FIG. 4A) was excluded by drawing a gate around an area encompassing, primarily, lymphocytes, monocytes, and granulocytes (LMG, black in FIG. 4A). Next, in cells passing through the LMG gate, the blast region (circle in FIG. 4B) was identified in the CD45 versus SSC-Area histogram (FIG. 4B). From this blast population, CD34+, CD117+ cells were identified in the CD34 versus CD117 plot (boxed area in FIG. 4C). Finally, these cells were further analyzed for cytokine-mediated increases in phosphorylation by constructing gates in the single parameter histograms (for positively and negatively stained events, i.e., for the phosphorylated and non-phosphorylated forms, respectively, of each protein) for pS6 (FIGS. 4D and 4G), pERK (FIGS. 4E and 4H), and pSTAT5 (FIGS. 4F and 4I). […] The dotted lines in each of these histograms represent unstimulated cells at t=0 min. FCS files were processed with WinList 6.0 3D (Verity Software House).

pERK [5] = test: as above; conditions: for pERK Amp (peak amplitude of fold stimulation) / pERK RI (response interval): CD34^+, CD117^+ cells, AML1 sample (Example 6)
Description: as §2, §3, §5

pSTAT5 [6] = test: as above; conditions: AML1 sample (Example 6)
Description: as §2, §3, §5

[7] = monocytes vs CD34^+, CD117^+ cells
[8] = monocytes, healthy donor bone marrow
[9] = CD34^+, CD117^+ cells, healthy donor samples

Row | Molecule | pS6 Amp (peak amplitude of fold stimulation) (pS6 [1]; CD117^+ cells) | pS6 RI (response interval) (pS6 [1]; CD117^+ cells) | pS6 maximal fold stimulation in monocytes, times the level observed in CD34^+, CD117^+ cells (pS6 [1]; [7]) | pS6 maximal fold stimulation (pS6 [1]; [8]) | pERK Amp (peak amplitude of fold stimulation) (pERK [2]) | pERK RI (response interval) (pERK [2]) | pERK maximal fold stimulation (pERK [2]; [8]) | pSTAT5 RI (response interval) (pSTAT5 [3]; [9]) | pSTAT5 maximal fold stimulation in monocytes, times the level observed in CD34^+, CD117^+ cells (pSTAT5 [3]; [7]) | pSTAT5 maximal fold stimulation (pSTAT5 [3]; [8]) | pS6 Amp (peak amplitude of fold stimulation) (pS6 [4]) | pS6 RI (response interval) (pS6 [4]) | pERK Amp (peak amplitude of fold stimulation) (pERK [5]) | pERK RI (response interval) (pERK [5]) | pSTAT5 Amp (peak amplitude of fold stimulation) (pSTAT5 [6]) | pSTAT5 RI (response interval) (pSTAT5 [6]) | pSTAT5 Amp (peak amplitude of fold stimulation) (pSTAT5 [3]; [9]) | pERK response, fold greater than in healthy donor samples (pERK [5]; SCF: AML1 and AML2, FL: AML1)
1 | Granulocyte-Macrophage Colony-Stimulating Factor [GM-CSF] | 1.8 and 1.8 ± 0.3 | Variable | about 100 times | about 500 | 4.5 and 4.5 ± 0.6 | Variable | about 100 | >60 min | about 500 times | approximately 10,000 | 1 | 20 min | 6 | 10 min | 110 | >60 min |  | 
2 | FMS-Like Tyrosine Kinase 3 (FLT-3) ligand (protein, UniProt P49771 27-235, looked up) Fms-related tyrosine kinase 3 …: TQDCSFQHSPISSDFAVKIRELSDYLLQDYPVTVASNLQDEELCGGLWRLVLAQRWMERLKTVAGSKMQGLLERVNTEIHFVTKCAFQPPPSCLRFVQTNISRLLQETSEQLVALKPWITRQNFSRCLELQCQPDSSTLPPPWSPRPLEATAPTAPQPPLLLLLLLPVGLLLLAAAWCLHWQRTRRRTPRPGEQVPPVPSPQDLLLVEH | 12 and 12 ± 1.4 | 37 min and 37 ± 6.0 min |  |  | 51 and 51 ± 11 | 18 min and 18 ± 1.5 min |  | Variable |  |  | 140 | 30 min | 460 | 30 min | 2 | 2 min | 0.8 ± 0.2 | approximately 10 fold
